# Test: gradient 5% acetonitrile 3 min, to 50% in 2 min, to 85% in 15 min, held 3 min, 100 µL/min
# Details: column: Zorbax Extend-C18 2.1 x 50 mm; eluents: water / acetonitrile, 0.1% formic acid
# How it was run: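 Retention times of pure standards were taken from adduct peaks that were selected by computer and manually inspected. Over 3 months, mixtures of ~100 molecules were run by HPLC–quadrupole time-of-flight mass spectrometry in positive and negative ionization mode. The Zorbax Extend-C18 column (2.1 × 50 mm, 1.8 μm) ran at 100 μL/min in water and acetonitrile, each containing 0.1% formic acid, with 40 μL dead volume and 900 μL dwell volume.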
row,Compound,RP-LC retention time
1,Brc1ccc(C(c2nnc(-c3ccccc3)o2)N2CCN(c3ccccn3)CC2)cc1 (configuration not stated),800 s
2,CC(C)n1cc(C2=CCN(S(=O)(=O)c3cccc4cccnc34)CC2)c2cccnc21,993 s
3,CN1C[C@@H](CO)C=C2c3cccc4[nH]cc(c34)C[C@@H]21,607 s
4,CCCN(CCC)C(=O)C1COC2(CCCCC2)N1C(=O)c1c(OC)cccc1OC (configuration not stated),864 s
5,Cc1cc(F)ccc1NC(=O)C1CCCN(S(=O)(=O)c2c[nH]c(C(=O)N3CCCCCC3)c2)C1 (configuration not stated),857 s
6,Cn1c(C2CCN(C(=O)Nc3ccc(Br)cc3F)CC2)cc(=O)n2nccc12,694 s
7,CCN1CCC[C@H]1CNC(=O)c1c(O)c(Cl)cc(Cl)c1OC,777 s
8,COc1cccc(C(=O)N2CCN(c3ccc(=O)n(-c4ccc(Cl)cc4)n3)CC2)c1,853 s
9,Cc1cc(=O)n(CC(=O)Nc2ccc(F)cc2F)c(N2CCCCC2)n1,672 s
10,COC(=O)c1ccccc1NC(=O)C1CN(C(=O)c2ccc(F)c(F)c2)C1,803 s
11,CC(NC(=O)Cn1nc(Cc2cccnc2)c2ccccc2c1=O)c1ccc2c(c1)OCCO2 (configuration not stated),632 s
12,COc1ccc(C(=O)NCCc2sc(-c3cccnc3)nc2C)cc1,619 s
13,COc1ccc(CCn2c(-c3cccs3)nc3c(c(=O)c4ccccc4n3C)c2=O)cc1,880 s
14,COc1ccc(NC(=O)C2CCCN(c3cnc4nccnc4c3)C2)cc1 (configuration not stated),698 s
15,COC(=O)c1c(-c2ccccc2)noc1NCc1ccc(OC)cc1OC,1070 s
16,CCn1nc(CNC(=O)Cc2ccccc2F)c2ccccc21,791 s

row,Compound,RP-LC retention time
1,O=C(NCc1ccccn1)C(=O)NCC1OCCN1C(=O)c1ccc2c(c1)OCO2 (configuration not stated),563 s
2,Cc1ccc(CNC(=O)Cn2nc(C)c3nn(-c4ccccc4)c(C)c3c2=O)o1,816 s
3,Cc1cccc(CCNC(=O)C2CCCN(c3ncnc4c3nc3n4CCCCC3)C2)c1 (configuration not stated),819 s
4,COc1ccc2c(c1)C=C(C(=O)N1CCN(Cc3ccc(OC)c(OC)c3OC)CC1)CO2,682 s
5,O=C(Nc1ccc(Br)cc1F)C1CCCN(c2ccc(=O)n(-c3cccc(F)c3)n2)C1 (configuration not stated),1020 s
6,CC(C)c1ccc(N2C(=O)CN(S(C)(=O)=O)CC2(C)C(=O)NCc2ccccc2)cc1 (configuration not stated),860 s
7,CNC(=O)c1sc2nc(-c3ccc(C)cc3)c(NCCOC)n2c1C,712 s
8,Cc1scc2nc(C(=O)Nc3cccc(F)c3)nc(N3CCCC3)c12,567 s
9,O=C(c1ccccc1N1C(=O)c2cccc3cccc(c23)C1=O)N1CCOCC1,692 s
10,CC(=O)c1cccc(NC(=O)Nc2cccc(-c3ccc(N4CCOCC4)nn3)c2)c1,655 s
11,CSc1ccc(-c2nc3cnccn3c2Nc2cccc(C(=O)NC3CCCCC3)c2)cc1,892 s
12,COCc1nnc(NC(=O)c2ccccc2OCc2nc(-c3ccc(C)cc3)no2)s1,1060 s
13,Cn1cc2c(N3CCSCC3)nc(C(=O)NCc3ccc(N4CCCC4)cc3)nc2n1,699 s
14,c1ccc(-c2nc(-c3cnccn3)no2)c(OC2CCN(C3CCSCC3)C2)c1 (configuration not stated),653 s
15,CCOC(=O)c1c(S(=O)(=O)N2CCC(C(=O)NC3CC3)CC2)c(C)n(C)c1C,672 s
16,CCCNc1cc(-n2cccn2)ncn1,668 s

# Reference: the METLIN SMRT retention time set (Domingo-Almenara et al. 2019)
